For the test, the system named is Cotton (Gossypium hirsutum) of the variety DP 1050 B2BRF. Put plainly: Field trial: percentage of open bolls in cotton after in-furrow application (earliness). In kind it is in vivo. The conditions noted are these: application rate 841 g/ha, in furrow by spreading, visual inspection. From the text:
Cotton (Gossypium hirsutum) of the variety DP 1050 B2BRF was planted in a field trial in Brooks, Ga., United States in May 2013. Temik (comprising the active ingredient Aldicarb ([2-methyl-2-(methylthio) propionaldehyde O-(methylcarbamoyl)oxime]) and Fluopyram in combination with Imidacloprid (Velum® Total, Bayer CropScience) were applied in furrow at the same day. Temik was used for controlling insects in cotton and was provided as a Granule Release formulation with 15% (w/w) active ingredient and was applied at a rate of 841 g of active ingredient/ha by spreading. Fluopyram in combination with Imidacloprid (Velum® Total) was used as a Soluble Concentrate (SC) formulation with a concentration of 440 g/l active ingredient in total, thereof 180 g/l Fluopyram and 260 g/l Imidacloprid and these combinations were applied separately at three different rates of 321.5 g of total active ingredient/ha, 450 g of total active ingredient/ha, and 578.7 g of total active ingredient/ha by spraying. The percentage of open bolls was assessed by visual inspection at three times after application.

Molecules are shown by their SMILES.

With `CNC(=O)ON=CC(C)(C)SC` [Aldicarb, 2-methyl-2-(methylthio) propionaldehyde O-(methylcarbamoyl)oxime], where the note is “97 days after application, BBCH 76”, the “percentage of open bolls, 97 Days after Application BBCH 76” value came to 12.5%. Also, the “percentage of open bolls, 104 Days after Application BBCH 77” value (104 days after application, BBCH 77) was found to be 17.5%. For the same compound, the “percentage of open bolls, 111 Days after Application BBCH 78” value (111 days after application, BBCH 78) came to 30.0%.

The values above are taken from US20180332850A1, “METHOD FOR IMPROVING EARLINESS IN COTTON” (Robert Bosch GmbH, priority 2015, published 2018).
